From ChEMBL document CHEMBL1201862, “PubChem BioAssay data set” (2004)
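Exposure lasted 48 hours, with cells grown in 96-well plates and compounds tested at five concentrations. GI50 marks 50% less growth.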 Calls of active or inactive are those of the source. No stated cut-off is given here; in the data, active = GI50 up to about 1.1 µM and inactive = higher.

What was measured:
Test in all cases: inhibition of tumour cell growth, NCI panel, 48 h
[1] = test system: LOX IMVI
[2] = test system: HCT-15
[3] = test system: OVCAR-4
[4] = test system: HT-29
[5] = test system: DU-145
[6] = test system: UACC-257
[7] = test system: SF-295
[8] = test system: OVCAR-8
[9] = test system: SR
[10] = test system: SNB-19
[11] = test system: COLO 205
[12] = test system: SNB-75
[13] = test system: U-251
[14] = test system: SK-MEL-5
[15] = test system: CCRF-CEM
[16] = test system: BT-549
[17] = test system: MDA-MB-435
[18] = test system: UACC-62
[19] = test system: NCI-H226

Structure (SMILES) | GI50 [1] | GI50 [2] [µM] | GI50 [3] | GI50 [4] | GI50 [5] | GI50 [6] | GI50 [7] | GI50 [8] | GI50 [9] | GI50 [10] | GI50 [11] | GI50 [12] | GI50 [13] | GI50 [14] | GI50 [15] | GI50 [16] | GI50 [17] | GI50 [18] | GI50 [19]
CC1CN=C(N(C)C(=O)Nc2ccc(Cl)c(Cl)c2)S1 (stereo unspecified) | 17.5 µM (inactive) | 21.3 | 36.6 µM (inactive) | 33 µM (inactive) | 44.8 µM (inactive) | 26.9 µM (inactive) | 30.9 µM (inactive) | 27.2 µM (inactive) | 29.2 µM (inactive) | 80 µM (inactive) | 40.8 µM (inactive) | 19.1 µM (inactive) | 31.6 µM (inactive) | 15.7 µM (inactive) | 33.3 µM (inactive) | – | – | – | –
CN(N=O)C(=N)NC(=O)c1ccccc1 | 49.2 µM (inactive) | > 100 | > 100 µM (inactive) | > 100 µM (inactive) | – | > 100 µM (inactive) | > 100 µM (inactive) | > 100 µM (inactive) | 4.33 µM (inactive) | > 100 µM (inactive) | > 100 µM (inactive) | 51.5 µM (inactive) | > 100 µM (inactive) | 45.4 µM (inactive) | > 100 µM (inactive) | > 100 µM (inactive) | > 100 µM (inactive) | 56.5 µM (inactive) | > 100 µM (inactive)
CCOC(=O)C1=C(O)C(=O)c2cc(C)ccc2C1=O | 55.2 µM (inactive) | 77.8 | > 100 µM (inactive) | > 100 µM (inactive) | – | 48 µM (inactive) | 54.3 µM (inactive) | > 100 µM (inactive) | > 100 µM (inactive) | 31.6 µM (inactive) | 49.8 µM (inactive) | 43.5 µM (inactive) | > 100 µM (inactive) | 31 µM (inactive) | > 100 µM (inactive) | – | – | 44.1 µM (inactive) | 22.2 µM (inactive)
CCOC(=O)C(=O)/C(=C/NC(=S)Nc1ccc(Cl)c(Cl)c1)C(=O)OCC | > 100 µM (inactive) | > 100 | 88.7 µM (inactive) | 56.9 µM (inactive) | > 100 µM (inactive) | 60.3 µM (inactive) | > 100 µM (inactive) | > 100 µM (inactive) | 30.5 µM (inactive) | > 100 µM (inactive) | 67.9 µM (inactive) | 31.2 µM (inactive) | > 100 µM (inactive) | 27.6 µM (inactive) | 53.3 µM (inactive) | – | 72.1 µM (inactive) | 57.8 µM (inactive) | 56 µM (inactive)
O=C(CSCC(=O)N/N=C\c1ccc(F)cc1F)N/N=C\c1ccc(F)cc1F | > 100 µM (inactive) | > 100 | > 100 µM (inactive) | > 100 µM (inactive) | > 100 µM (inactive) | > 100 µM (inactive) | > 100 µM (inactive) | > 100 µM (inactive) | > 100 µM (inactive) | > 100 µM (inactive) | > 100 µM (inactive) | > 100 µM (inactive) | > 100 µM (inactive) | > 100 µM (inactive) | > 100 µM (inactive) | – | > 100 µM (inactive) | > 100 µM (inactive) | > 100 µM (inactive)
COC(=O)c1cnn2c1ccc1ccccc12 | > 100 µM (inactive) | > 100 | – | > 100 µM (inactive) | > 100 µM (inactive) | > 100 µM (inactive) | > 100 µM (inactive) | > 100 µM (inactive) | – | > 100 µM (inactive) | > 100 µM (inactive) | > 100 µM (inactive) | > 100 µM (inactive) | > 100 µM (inactive) | > 100 µM (inactive) | 45.8 µM (inactive) | > 100 µM (inactive) | > 100 µM (inactive) | > 100 µM (inactive)
O=C1C2=Cc3ccccc3CCN2c2ccc([N+](=O)[O-])cc21 | 92.7 µM (inactive) | 58.3 | > 100 µM (inactive) | > 100 µM (inactive) | 96.2 µM (inactive) | 36.4 µM (inactive) | 36.6 µM (inactive) | 35.4 µM (inactive) | 66.8 µM (inactive) | > 100 µM (inactive) | 43.2 µM (inactive) | > 100 µM (inactive) | > 100 µM (inactive) | 21.9 µM (inactive) | 53.3 µM (inactive) | – | > 100 µM (inactive) | 55.5 µM (inactive) | 64 µM (inactive)
C=CCNC(=S)N/C=C(\C(=O)OCC)C(=O)C(=O)OCC | > 100 µM (inactive) | > 100 | > 100 µM (inactive) | > 100 µM (inactive) | > 100 µM (inactive) | > 100 µM (inactive) | > 100 µM (inactive) | > 100 µM (inactive) | > 100 µM (inactive) | > 100 µM (inactive) | > 100 µM (inactive) | > 100 µM (inactive) | > 100 µM (inactive) | > 100 µM (inactive) | > 100 µM (inactive) | – | > 100 µM (inactive) | > 100 µM (inactive) | > 100 µM (inactive)
CC1=[N+]([O-])C2(CCCC2)N(O)C1(C)C | > 100 µM (inactive) | > 100 | > 100 µM (inactive) | > 100 µM (inactive) | > 100 µM (inactive) | > 100 µM (inactive) | > 100 µM (inactive) | > 100 µM (inactive) | – | > 100 µM (inactive) | > 100 µM (inactive) | – | > 100 µM (inactive) | > 100 µM (inactive) | – | – | > 100 µM (inactive) | > 100 µM (inactive) | > 100 µM (inactive)
CCSCCCCC(c1ccc(O)cc1)C(C)(CC)c1ccc(O)cc1 (stereo unspecified) | 17.6 µM (inactive) | 18.4 | 21.7 µM (inactive) | – | > 100 µM (inactive) | 22.2 µM (inactive) | 31.3 µM (inactive) | 19.3 µM (inactive) | 38.7 µM (inactive) | 24.5 µM (inactive) | 20.4 µM (inactive) | > 100 µM (inactive) | 16.4 µM (inactive) | 18.2 µM (inactive) | 18.6 µM (inactive) | – | 18.2 µM (inactive) | 27.2 µM (inactive) | 17.9 µM (inactive)
COC(=O)[C@H](COC(=O)/C=C/c1ccc(OC(C)=O)c(OC(C)=O)c1)NC(=O)/C=C/c1ccc(OC(C)=O)c(OC(C)=O)c1 | 18.4 µM (inactive) | 18.8 | 17.4 µM (inactive) | 22.3 µM (inactive) | 14.1 µM (inactive) | 20.5 µM (inactive) | – | 27.7 µM (inactive) | – | 15.8 µM (inactive) | 18.5 µM (inactive) | 14.6 µM (inactive) | 29.1 µM (inactive) | 16.4 µM (inactive) | 5.98 µM (inactive) | 16.3 µM (inactive) | 19.4 µM (inactive) | 15 µM (inactive) | 29.2 µM (inactive)
Oc1cnc2c(O)cccc2c1 [JINEOL] | 26.2 µM (inactive) | 33.5 | – | 32.7 µM (inactive) | 57.3 µM (inactive) | 56.6 µM (inactive) | 36.8 µM (inactive) | 26.2 µM (inactive) | 40.6 µM (inactive) | 58.9 µM (inactive) | – | 20.7 µM (inactive) | 48.9 µM (inactive) | – | – | – | 80.2 µM (inactive) | 32.7 µM (inactive) | 24.2 µM (inactive)
